In patent US20210253518A1, “KINASE INHIBITOR” (NISSAN CHEMICAL CORPORATION, priority 2018, published 2021):

How the values were obtained:
TAZ protein = assay: Imaging analysis of nuclear translocation in SKOV3 cells; type: cell-based, human; details: 10 μM, 4 hr, ratio of fluorescence intensity nucleus/cytoplasm, no addition 6.98
Experimental: Compounds k-1:B-1, k-1:H-1, and k-1:J-1 were evaluated for nuclear translocation of YAP protein and TAZ protein. For the nuclear translocation, imaging analysis was performed using the human ovarian cancer cell line SKOV3 (manufactured by DS Pharma Biomedical Co., Ltd) and OperettaCLS (manufactured by PerkinElmer) described below. The compounds were added such that the final concentration of the test concentration of k-1:B-1, k-1:H-1, and k-1:J-1 was 10 μM.
Human ovarian cancer cell line SKOV3 cultured according to the protocol recommended by DS Pharma Biomedical Co., Ltd. was seeded on a 96-well plate (manufactured by PerkinElmer, CellCarrier-Ultra) at 15,000 cells/90 μL/well on the cycloolefin bottom surface, and cultured in a CO2 incubator (37° C., 5% CO2) for 1 day. After culturing, 10 μL of k-1:B-1, k-1:H-1, and k-1:J-1 solutions having a concentration of 100 μM and dissolved in DMSO was added. The cells were further cultured in a CO2 incubator at 37° C. for 4 hr. The medium was exchanged with 4% para-formaldehyde, and the cells were fixed by allowing to stand at room temperature for 10 min. The fixed cells were subjected to immunostaining with AlexaFluor® 647-labeled YAP antibody (manufactured by Cell Signaling Technology), anti-mouse TAZ (D-8) antibody (manufactured by SantaCruz), AlexaFluor® 555-labeled anti-mouse IgG antibody (manufactured by Thermo Fisher Scientific), according to the recommended protocol produced by Cell Signaling Technology, and the cell nucleus was further stained with 10 μg/mL Hoechst33342 solution.
Nine fields of view were imaged per well using a 20× objective lens of Operatta CLS. The cell nucleus region and the cytoplasm region were identified from the obtained fluorescence images by using the analysis software Harmony (manufactured by PerkinElmer), and AlexaFluor® 647 fluorescence intensity per unit area and the AlexaFluor® 555 fluorescence intensity per unit area in each region were extracted. The nuclear translocation was evaluated by calculating the ratio of the fluorescence intensity of the cell nucleus region to the fluorescence intensity of the cytoplasmic region from the extracted values. The value becomes greater than 1 as the YAP protein and TAZ protein transfer into the cell nucleus, and less than 1 when localized in the cytoplasm.
The specific compound used in the present invention was evaluated for the nuclear translocation of YAP protein and TAZ protein. For the nuclear translocation, imaging analysis was performed using the human ovarian cancer cell line SKOV3 (DS Pharma Biomedical Co., Ltd) and OperettaCLS (PerkinElmer) described below. The specific compound was added such that the final concentration of the test concentration of the compound used in the present invention was 10 μM.
Human ovarian cancer cell line SKOV3 cultured according to the protocol recommended by DS Pharma Biomedical Co., Ltd. was seeded on a 96-well plate (PerkinElmer, CellCarrier-Ultra) at 15,000 cells/90 μL/well on the cycloolefin bottom surface, and cultured in a CO2 incubator (37° C., 5% CO2) for 1 day. After culturing, a solution of the specific compound used in the present invention dissolved in DMSO was added. The cells were further cultured in a CO2 incubator at 37° C. for 4 hr, the medium was exchanged with 4% para-formaldehyde, and the cells were fixed by allowing to stand at room temperature for 10 min. The fixed cells were subjected to immunostaining with AlexaFluor® 647-labeled YAP antibody (Cell Signaling Technology), anti-mouse TAZ (D-8) antibody (SantaCruz), AlexaFluor® 555-labeled anti-mouse IgG antibody (Thermo Fisher Scientific), according to the recommended protocol produced by Cell Signaling Technology, and the cell nucleus was further stained with 10 μg/mL Hoechst33342 solution.
Nine fields of view were imaged per well using a 20× objective lens of Operatta CLS. […]

[1] = system: YAP (phospho-S127 and total); assay: YAP phosphorylation inhibitory action in SKOV3 cells (HTRF, YAP-total kit / YAP phospho-S127 kit); type: cell-based, human; details: 10 μM, 1 hr, Non-treatment as 100%
Experimental: Human ovarian cancer cell line SKOV3 (manufactured by DS Pharma Biomedical Co., Ltd) was precultured (single layer culture) in a 15% FBS-containing McCoy's 5a medium (manufactured by Sigma Ltd. Aldrich). The above-mentioned cells in the logarithmic growth phase were washed with PBS, a 0.25% (w/v) trypsin-1 mmol/L ethylenediaminetetraacetic acid (EDTA) solution (manufactured by Fujifilm Wako Pure Chemical Corporation) was added, and adherent cells were detached by incubating at 37° C. for 3 min. The above-mentioned medium was added and the mixture was centrifuged and resuspended in the same medium.
According to the method of patent document (WO 2014/017513), a composition of 10% FBS-containing DMEM medium (Phenol-red free, manufactured by FUJIFILM Wako Pure Chemical Corporation) containing 0.015% (w/v) deacylated gellan gum (KELCOGEL CG-LA, manufactured by SANSHO Co., Ltd.) was prepared using FCeM-series Preparation Kit (manufactured by FUJIFILM Wako Pure Chemical Corporation). Then, various cells prepared above were suspended in the above-mentioned medium composition (3D conditions) added with deacylated gellan gum or a medium without the addition (2D conditions), and seeded on a 50 μL/well (manufactured by Corning Incorporated, 96 well flat bottom plate, #3585, 2D conditions) or 25 μL/well (manufactured by Corning Incorporated, 96 well low adhesion flat bottom plate, #3474) at 100000 cells/well. The plate was allowed to stand at 37° C. in a 5% CO2 incubator, and the compound of the present invention diluted with the medium at 2 or 6 times the final concentration, DMSO, or the medium alone was added to the plate 3 hr after the seeding at 50 μL/well (2D conditions) or 5 μL/well (3D conditions) to make the final concentration of each compound 10 μM. After culture at 37° C. in a 5% CO2 incubator for 1 hr, the supernatant was aspirated, supplemented Lysis buffer (1-fold concentration, manufactured by Cisbio, YAP-total kit or YAP phospho-S127 kit) (50 μL) was added under 2D conditions, and supplemented Lysys buffer (4-fold concentration) (10 μL) was added to the culture supernatant under 3D conditions, and the mixture was stirred by a plate shaker for 30 min. Thereafter, the plate was centrifuged, 16 μL of the supernatant was transferred to a 384-well white plate (Corning, #4512), and each antibody solution (pYAP d2 antibody or Total-YAP d2 antibody, and pYAP Cryptate antibody or Total-YAP Cryptate antibody) included in the kit was added at 4 μL/well in total, and the mixture was allowed to stand at room temperature overnight. As a blank control, pYAP Cryptate antibody or Total-YAP Cryptate antibody alone was added to cells free of stimulation with compound and the mixture was treated in the same manner (Non-treatment). The next day, the wavelengths at 665 nm and 615 nm were measured in the HTRF mode of EnVision (manufactured by PerkinElmer).
The obtained signal was calculated as follows. Ratio=signal (665 nm)/signal (615 nm)×10000, ΔR=Signal(Ratio)−Background fluorescence, and the relative value with respect to ΔR of the compound non-addition group (Non-treatment) as 100% was calculated, and the phosphorylated YAP amount or total YAP amount by each compound was evaluated.

Structure (SMILES) | TAZ nuclear translocation rate (TAZ protein) | phosphorylated YAP (%) ([1]; 2D condition) | total YAP (%) ([1]; 2D condition) | phosphorylated YAP (%) ([1]; 3D condition) | total YAP (%) ([1]; 3D condition)
CC/C(=N\NC(=O)C(C)Nc1ccccc1)c1ccc(O)c(C)c1O (stereo not drawn) [k-1:B-1] | 7.93 | 14 | 89 | 31 | 99
CCC(=NNC(=O)CNc1ccccc1)c1ccc(O)c(C)c1O [k-1:H-1] | 8.84 | 38 | 94 | 80 | 107
CC/C(=N\NC(=O)NCc1cccc(O)c1)c1ccc(O)c(C)c1O [k-1:J-1] | 9.14 | 13 | 86 | 30 | 109
